Where two headings read alike, the source gives them in different places.
System: Hh signaling pathway
Experiment: NIH3T3-GRE-Luc luciferase reporter assay (primary assay)
Assay type: cell-based
Excerpt: NIH3T3 cells (CRL-1658, ATCC) were maintained in DMEM (Gibico) supplemented with 10% FBS (Hyclone). GRE-Luc plasmid was generated by inserting 8×Gli-1 responsive element (GRE) into the multiple cloning site of pGL4.26 vector (Promega). NIH3T3-GRE-Luc reporter cell line was established by hygromycin (Invitrogen) selection after transfected with GRE-Luc luciferase reporter plasmid. Single clones were validated by the induction of luciferase by recombinant sonic hedgehog (sHh) protein or small molecule agonist SAG (ABIN629346). Selected clone was used to monitor the Hh signaling.
(§1) The NIH3T3-GRE-Luc cells were maintained in complete culture medium (DMEM with 4 mM L-Gln, 1.5 g/L sodium bicarbonate and 4.5 g/L glucose supplemented with 100 μg/mL hygromycin and 10% FBS). When confluent, the cells were trypsinized and re-suspended in assay medium (0.5% serum-containing DMEM). After 100 µL/well of cells suspension was added to the 96-well-plate (Final cell concentration is 15,000 cells/well), cells were cultured for additional 48 hours before adding the compounds.
Compounds were serially diluted in DMSO and further diluted with assay medium. In an embodiment, 10 nM SAG was added in assay medium as the agonist of Hh signaling. After the compounds and agonist were prepared, the medium was removed carefully. 100 μL of assay medium containing compound and agonist was added to the cell with care. Cell plates were incubated at 37° C. for additional 48 hours.
(§2) Following the 48 hours incubation, 40 μL/well of luciferase media (Brigh-Glo, Promega) was added to the cells. The plate was incubated at room temperature for 5 minutes under gentle shaking. Luminescence signal was measured with plate reader (PHERAstar FS, BMG). The potency of compounds was calculated based on the inhibition of luminescence signaling.
NIH3T3 cells (CRL-1658, ATCC) were maintained in DMEM (11965, Gibico) supplemented with 10% FBS (Hyclone). GRE-Luc plasmid was generated by cloning 8×Gli-1 responsive element (GRE) into the MCS of pGL4.26 (Promega). NIH3T3-GRE-Luc reporter cell lines were established by hygromycin (Invitrogen) selection after transfection with GRE-Luc luciferase reporter plasmid. Single clones were validated for the assay quality with N-terminal fragment of recombinant sonic hedgehog protein or small molecule agonist SAG (ABIN629346). Selected clone were used to monitor the Hh signaling.
as §1, with “ug/ml” for “μg/mL”, “resuspended” for “re-suspended”, “ul/well” for “µL/well”
Compounds were serially diluted in DMSO and further diluted with assay medium. In an embodiment, 10 nM SAG was added in assay medium as the agonist of Hh signaling. After the compounds and agonist were prepared, carefully remove medium (Aspirate the medium with pipette instead of vacuum, or else the NIH3T3 cells monolayer will be detached). 100 ul of assay medium containing compound or agonist was added to the cell with care. Cell plates were incubated at 37 degree for additional 48 hours.
as §2, with “ul/well” for “μL/well”, “min” for “minutes”, “basing” for “based”

[1] = 48 h, 10 nM SAG as agonist, 48 hours, read-out: Effect IC50 (nM)(GRE reporter assay)
[2] = IC50 of vismodegib over that of the tested compound in the same assay
[3] = IC50 value of Vismodegib over that of the tested compound in the same assay
[4] = primary assay, Table 5, read-out: SMO IC50

Row | Structure (SMILES) | Hh pathway inhibitory activity compared to compound B2 of S configuration | increase of inhibitory activity against Hedgehog pathway compared with A-55 | IC50 [1] [nM] | Ratio [2] | Ratio [3] | increase of Hh pathway inhibitory activity compared to racemic compound B (chiral compound vs racemic compound) | IC50 [4] [nM] | IC50 (read-out: IC50 (Hh pathway)) [nM]
1 | Cc1cnc(-c2cc(N3CCc4nc(N5CCC(O)CC5)ncc4[C@H]3C)ncc2Cl)c(C)c1 [Compound B1, (R)-1-(6-(5′-chloro-3,5-dimethyl-[2,4′-bipyridin]-2′-yl)-5-methyl-5,6,7,8-tetrahydropyrido[4,3-d]pyrimidin-2-yl)piperidin-4-ol] | more than 20 fold | about 12 folds | 0.8 | 22.4 | 22.4 | about 3 fold | 0.8 | 0.8
2 | Cc1cnc(-c2cc(N3CCc4nc(N5CCC(O)CC5)ncc4C3C)ncc2Cl)c(C)c1 (racemic) [B] | – | – | 2.7 | 5.0 | 5.0 | – | 2.7 | 2.7

— patent US10919889B2, “Chiral heterocyclic compound with hedgehog pathway antagonist activity, method and use thereof” (SUZHOU KINTOR PHARMACEUTICALS, INC., priority 2016, dated 2021)
